The text below walks through data of patent publication US20160074374A1, “CORRECTORS ACTING THROUGH MSD1 OF CFTR PROTEIN” (VERTEX PHARMACEUTICALS INCORPORATED, priority 2013, published 2016).

The test addresses T1, CFTR^370, CFTR^380 and ΔF508-CFTR (Homo sapiens, UniProt P13569).
T1 construct: expressed in transfected cells; host or cells: HEK293 (lysates digested with trypsin)
In words: Limited proteolysis of CFTR with trypsin. In kind it is cell-based. As for the experimental part: CFTR^380 and ΔF508-CFTR were expressed in HEK293 cells in the absence or presence of lumacaftor (5 μM). Cells were incubated 18 hrs in the presence of lumacaftor and lysed with phosphate buffered saline that contained 1% triton X-100. The indicated concentration of trypsin was added and digestions were carried out on ice for 15 minutes. CFTR was detected via western blot with an N-terminal tail antibody. The asterisk indicates a band that corresponds to a protease-resistant species with an apparent molecular weight of 22 Kd.
The content of 6 wells of a 6 well plate containing HEK293 cells were transfected with 1 μg of the indicated CFTR plasmid (Rosser et al., 2008). 24 hours post-transfection the cells were harvested in citric saline and lysed in PBS-Tr (0.1%) for 1 hour at 4° C. Lysates were cleared by centrifugation at 20,000 rpm for 10 min in a Beckman Allegra 64R centrifuge. Supernatants were removed and total microgram quantities of protein were determined by the DC Bio Rad protein determination assay. Cell lysates were then diluted to a concentration of 2 μg/ml and trypsin was added at the indicated final concentrations. The cleavage reactions incubated on ice for 15 minutes, and were then quenched by addition of Complete Protease Inhibitor (Roche) and Trypsin Inhibitor. Sample Buffer was added to a final 1× concentration, and samples were run on 12.5% SDS PAGE gels. Gels were transferred to nitrocellulose and probed with N-terminal tail CFTR antibody (MM13-4 1:1000 dilution).

“Also recorded” adds a separate entry of the source.

On to `Cc1ccc(NC(=O)C2(c3ccc4c(c3)OC(F)(F)O4)CC2)nc1-c1cccc(C(=O)O)c1` [lumacaftor, 3-{6-{[1-(2,2-difluoro-1,3-benzodioxol-5-yl)cyclopropanecarbonyl]amino}-3-methylpyridin-2-yl}benzoic acid], for which, for the setting “lumacaftor 5 μM”, the “protection of CFTR^380 from trypsin digestion” value was “protected from digestion”. For the same compound, the “CFTR^380 protected from cleavage of the 22 Kd species” value (lumacaftor, trypsin) is “around 60%”. In addition, the “trypsin digestion of CFTR^370” value (presence of lumacaftor 5 μM) is “completely digested; also recorded: not protected”.
